Experimental data: patent US12377176B2, “Cancer diagnostic imaging agents” (Technische Universität München, priority 2019, dated 2025)
Where “and” joins values, the source holds several entries; their conditions need not be identical. Identical values can stand only once.

Assays:
HSA = molecular target: T1, HSA (Homo sapiens, UniProt P02768); test: HSA binding on Chiralpak HSA column; format: in vitro ADME; conditions: Chiralpak HSA column (50 × 3 mm, 5 μm), (n = 6)
T1 construct: purchased H13H-2433
T1 sequence (P02768 25-609): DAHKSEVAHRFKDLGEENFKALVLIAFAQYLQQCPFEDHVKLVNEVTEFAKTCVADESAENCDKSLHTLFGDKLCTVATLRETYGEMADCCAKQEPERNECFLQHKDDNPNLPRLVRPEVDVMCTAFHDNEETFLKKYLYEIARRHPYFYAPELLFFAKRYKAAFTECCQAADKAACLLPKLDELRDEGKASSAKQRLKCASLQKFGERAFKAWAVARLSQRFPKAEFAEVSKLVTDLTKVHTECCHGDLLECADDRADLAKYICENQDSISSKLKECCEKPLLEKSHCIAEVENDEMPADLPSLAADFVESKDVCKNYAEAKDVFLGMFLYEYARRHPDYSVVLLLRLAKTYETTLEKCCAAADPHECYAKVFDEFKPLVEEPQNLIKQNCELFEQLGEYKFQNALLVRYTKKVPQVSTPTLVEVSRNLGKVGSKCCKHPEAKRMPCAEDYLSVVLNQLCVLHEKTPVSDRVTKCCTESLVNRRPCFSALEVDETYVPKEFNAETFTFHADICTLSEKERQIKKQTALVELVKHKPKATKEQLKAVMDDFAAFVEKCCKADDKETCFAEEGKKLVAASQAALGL
Procedure: The mobile phase (A: NH4OAc, 50 mM in water, pH 7 and B: isopropanol) was freshly prepared for each experiment and only used for one day. The column was kept at room temperature and each run was stopped after detection of the signal to reduce the acquisition time. All substances were dissolved in a 0.5 mg/ml concentration in 50% 2-propanol and 50% 50 mM pH 6.9 ammonium acetate buffer. […] All nine reference substances were injected consecutively to establish a non-linear regression with Origin Pro 2016G.

[1] = system: LNCaP tumor-bearing CB-17 SCID mice; conditions: male, mouse, in vivo, 1 h
Procedure: To establish tumor xenografts, LNCaP cells (10^7 cells/200 μL) were suspended in a 1:1 mixture (v/v) of Dulbecco modified Eagle medium/Nutrition Mixture F-12 with Glutamax-I (1:1) and Matrigel (BD Biosciences, Germany), and inoculated subcutaneously onto the right shoulder of 6-8 weeks old CB17-SCID mice (Charles River, Sulzfeld, Germany). Mice were used for when tumors had grown to a diameter of 5-8 mm (3-4 weeks after inoculation).
Approximately 1-2 MBq (<0.2 nmol) of the ^18F-labeled PSMA inhibitor was injected into the tail vein of LNCaP tumor-bearing male CB-17 SCID mice and sacrificed after 1 h post injection (n=4-5). Selected organs were removed, weighted and measured in a γ-counter

[2] = Human biodistribution and uptake in tumor lesions, PET/CT SUV; format: in vivo; conditions: for ratio SUVmax to background, max / ratio SUVmax to background, mean / ratio SUVmax to background, min / ratio SUVmean to background, max / ratio SUVmean to background, mean / ratio SUVmean to background, min: human PET/CT, background gluteal muscle; for SUVmax mean, bladder / SUVmax mean, bloodpool / SUVmax mean, bone / SUVmax mean, duodenum / SUVmax mean, kidney / SUVmax mean, liver / SUVmax mean, lungs / SUVmax mean, pancreas / SUVmax mean, parotic gland / SUVmax mean, spleen / SUVmax mean, submandibular gland / SUVmean mean, duodenum / SUVmean mean, kidney / SUVmean mean, liver / SUVmean mean, lungs / SUVmean mean, pancreas / SUVmean mean, parotic gland / SUVmean mean, spleen / SUVmean mean, submandibular gland / SUVmax mean, background / SUVmean mean, background / SUVmean mean, bladder / SUVmean mean, bloodpool / SUVmean mean, bone / SUVmax mean, tumor / SUVmean mean, tumor: patients, PET/CT; for SUVmax mean, background / SUVmean mean, background: gluteal muscle; for SUVmean mean, bone: non-diseased bone
Procedure: Human biodistribution was estimated by analysing clinical ^18F-rhPSMA-7- and ^18F-rhPSMA-7.3-PET/CT exams in 47 and 32 patients, respectively.
The mean and maximum standardized uptake values (SUVmean/SUVmax) were determined for background (gluteal muscle), normal organs (salivary glands, blood pool, lung, liver, spleen, pancreas, duodenum, kidney, bladder, bone) and three representative tumor lesions. Tumor uptake was analyzed in 89 lesions (26 primary tumors/local recurrences, 23 bone, 38 lymph node and 2 visceral metastases) and 63 lesions (14 primary tumors/local recurrences, 30 bone, 18 lymph node and 1 visceral metastases) for ^18F-rhPSMA-7 and ^18F-rhPSMA-7.3, respectively.
Organ-background and Tumor-background ratios were calculated.

[3] = Preclinical dosimetry in SCID mice, extrapolated to 70-kg Standard Adult (OLINDA/EXM 1.0); format: in vivo; conditions: extrapolated from mice
Procedure: 3-5 mice were injected per timepoint with a mean 25.6±3.6 MBq of 18F-rhPSMA-7 and 28.5±4.8 MBq of 18F-rhPSMA-7.3, respectively. Mice, severe combined immunodeficiency (SCID) were used for the experiments.
Urine, blood, heart, lung, spleen, pancreas, liver, stomach (emptied), small intestine (emptied), large intestine (emptied), kidneys, bladder, testis, fat, muscle (partial, femoral), femur, tail and brain. Urine was collected with a pipette in the CO2 gas chamber. In case of missing urination in the chamber the bladder was aspirated with an insulin syringe. Blood was withdrawn instantly after sacrifice with an insulin syringe from the heart. All other tissues and organs were dissected and transferred directly in plastic containers.
The counting rates of measurement samples were automatically corrected for decay. The radioactivity distribution ratios (unit: percentage of the injected dose (% ID) in the measurement samples were determined using the equation below. The sum of the counting rates from all measurement samples obtained from one mouse was designated as the counting rate for administrated radioactivity.
For consistency of statistical calculations for each radiotracer the same number of time-points for ^18F-rhPSMA-7 and ^18F-rhPSMA-7.3 was used. Therefore, for ^18F-rhPSMA-7 the 10 min and 20 min time points were combined creating a 15 min endpoint.
In brief, to calculate a human dosimetry from the biodistribution in the mice, an extrapolation was necessary to account for the differences between the animals and humans. Normal-organ radiation doses were estimated for the 70-kg Standard Adult anatomic model using time-depending organ activity concentrations (in percent of the injected dose per gram, % ID/g) and total-body activities measured in the biodistribution studies in mice.
Tissue activity concentrations in mice were converted to tissue fractional activities in the 70-kg Standard Adult using the relative fractional organ masses in the Standard Adult and the “standard” 25-gramm mouse. Time-dependent total-body activity was fit to an exponential function and the difference between the injected activity and the total-body activity was assumed to be excreted to the urine because activity concentrations in the liver and GI tracer were low at all time points studied.
Organ residence time was calculated by numerical integration using the trapezoidal rule and the rest-of-body ^18F residence times was calculated as the difference between the total-body residence time and the sum of the organ and urine residence times. The bladder contents residence time was estimated using the dynamic voiding model in the OLINDA/EXM 1.0 dosimetry software. Finally, the Standard Adult mean organ dose equivalents (in mSv/MBq) and effective dose (also in mSv/MBq) were then calculated using OLINDA/EXM 1.0.

Compound: CC(C)(C)[Si](F)(c1ccc(C(=O)NC[C@@H](NC(=O)CC[C@@H](C(=O)O)N2CCN(CC(=O)O)CCN(CC(=O)O)CCN(CC(=O)O)CC2)C(=O)N[C@H](CCCCNC(=O)CCC(=O)NCCC[C@@H](NC(=O)CC[C@H](NC(=O)N[C@@H](CCC(=O)O)C(=O)O)C(=O)O)C(=O)O)C(=O)O)cc1)C(C)(C)C [rhPSMA7.3, [^19F][^natGa]D-Dap-S-DOTAGA-rhPSMA7, metal not drawn]
- HSA Binding (HSA): 96.9%
- Biodistribution adrenals [1]: 2.2 ± 0.83 % ID/g
- Biodistribution blood [1]: 0.96 ± 0.24 % ID/g
- Biodistribution bone [1]: 0.38 ± 0.32 % ID/g
- Biodistribution heart [1]: 0.87 ± 0.17 % ID/g
- Biodistribution intestine [1]: 0.35 ± 0.07 % ID/g
- Biodistribution kidneys [1]: 292 ± 45.1 % ID/g
- Biodistribution liver [1]: 0.69 ± 0.13 % ID/g
- Biodistribution lung [1]: 2.2 ± 0.35 % ID/g
- Biodistribution muscle [1]: 0.33 ± 0.15 % ID/g
- Biodistribution pancreas [1]: 0.63 ± 0.44 % ID/g
- Biodistribution spleen [1]: 16.6 ± 2.6 % ID/g
- Biodistribution stomach [1]: 0.44 ± 0.23 % ID/g
- Biodistribution tumor [1]: 18.3 ± 7.2 % ID/g
- ratio SUVmax to background, max ([2]; bladder): 5.5
- ratio SUVmax to background, mean ([2]; bladder): 3.1
- ratio SUVmax to background, min ([2]; bladder): 0.9
- ratio SUVmean to background, max ([2]; bladder): 6.8
- ratio SUVmean to background, mean ([2]; bladder): 3.1
- ratio SUVmean to background, min ([2]; bladder): 0.9
- ratio SUVmax to background, max ([2]; bloodpool): 5.2
- ratio SUVmax to background, mean ([2]; bloodpool): 2.8
- ratio SUVmax to background, min ([2]; bloodpool): 1.5
- ratio SUVmean to background, max ([2]; bloodpool): 4.9
- ratio SUVmean to background, mean ([2]; bloodpool): 2.9
- ratio SUVmean to background, min ([2]; bloodpool): 1.7
- ratio SUVmax to background, max ([2]; bone): 3.2
- ratio SUVmax to background, mean ([2]; bone): 2.0
- ratio SUVmax to background, min ([2]; bone): 1.1
- ratio SUVmean to background, max ([2]; bone): 3.6
- ratio SUVmean to background, mean ([2]; bone): 2.1
- ratio SUVmean to background, min ([2]; bone): 1.0
- ratio SUVmax to background, max ([2]; duodenum): 34.3
- ratio SUVmax to background, mean ([2]; duodenum): 16.2
- ratio SUVmax to background, min ([2]; duodenum): 6.9
- ratio SUVmean to background, max ([2]; duodenum): 39.4
- ratio SUVmean to background, mean ([2]; duodenum): 17.1
- ratio SUVmean to background, min ([2]; duodenum): 4.7
- ratio SUVmax to background, max ([2]; kidney): 93.0
- ratio SUVmax to background, mean ([2]; kidney): 51.8
- ratio SUVmax to background, min ([2]; kidney): 25.7
- ratio SUVmean to background, max ([2]; kidney): 95.5
- ratio SUVmean to background, mean ([2]; kidney): 55.6
- ratio SUVmean to background, min ([2]; kidney): 27.6
- ratio SUVmax to background, max ([2]; liver): 19.0
- ratio SUVmax to background, mean ([2]; liver): 9.7
- ratio SUVmax to background, min ([2]; liver): 4.0
- ratio SUVmean to background, max ([2]; liver): 20.7
- ratio SUVmean to background, mean ([2]; liver): 11.4
- ratio SUVmean to background, min ([2]; liver): 4.1
- ratio SUVmax to background, max ([2]; lungs): 1.8
- ratio SUVmax to background, mean ([2]; lungs): 1.0
- ratio SUVmax to background, min ([2]; lungs): 0.6
- ratio SUVmean to background, max ([2]; lungs): 1.8
- ratio SUVmean to background, mean ([2]; lungs): 1.0
- ratio SUVmean to background, min ([2]; lungs): 0.6
- ratio SUVmax to background, max ([2]; pancreas): 6.9
- ratio SUVmax to background, mean ([2]; pancreas): 4.1
- ratio SUVmax to background, min ([2]; pancreas): 2.2
- ratio SUVmean to background, max ([2]; pancreas): 7.8
- ratio SUVmean to background, mean ([2]; pancreas): 4.4
- ratio SUVmean to background, min ([2]; pancreas): 2.3
- ratio SUVmax to background, max ([2]; parotid gland): 46.2
- ratio SUVmax to background, mean ([2]; parotid gland): 24.7
- ratio SUVmax to background, min ([2]; parotid gland): 11.9
- ratio SUVmean to background, max ([2]; parotid gland): 44.6
- ratio SUVmean to background, mean ([2]; parotid gland): 25.2
- ratio SUVmean to background, min ([2]; parotid gland): 12.4
- SUVmax mean, bladder [2]: 3.1
- SUVmax mean, bloodpool [2]: 2.8
- SUVmax mean, bone [2]: 2.1
- SUVmax mean, duodenum [2]: 16.4
- SUVmax mean, kidney [2]: 51.9
- SUVmax mean, liver [2]: 9.7
- SUVmax mean, lungs [2]: 1.1
- SUVmax mean, pancreas [2]: 4.2
- SUVmax mean, parotic gland [2]: 24.6
- SUVmax mean, spleen [2]: 11.4
- SUVmax mean, submandibular gland [2]: 28.4
- SUVmean mean, duodenum [2]: 11.0
- SUVmean mean, kidney [2]: 35.5
- SUVmean mean, liver [2]: 7.3
- SUVmean mean, lungs [2]: 0.7
- SUVmean mean, pancreas [2]: 2.8
- SUVmean mean, parotic gland [2]: 16.0
- SUVmean mean, spleen [2]: 8.5
- SUVmean mean, submandibular gland [2]: 19.6
- SUVmax mean, background [2]: 1.0
- SUVmean mean, background [2]: 0.7
- SUVmean mean, bladder ([2]; listed as 18F-rhPSMA-7.3): 2.0 and 2.0±0.8
- SUVmean mean, bloodpool ([2]; listed as 18F-rhPSMA-7.3): 1.9 and 1.8
- SUVmean mean, bone [2]: 1.3
- SUVmax mean, tumor ([2]; tumor lesions): 44.0
- SUVmean mean, tumor ([2]; tumor lesions, listed as 18F-rhPSMA-7.3): 32.5±42.7 and 32.5
- ratio SUVmax to background, max ([2]; spleen): 22.4
- ratio SUVmax to background, mean ([2]; spleen): 11.4
- ratio SUVmax to background, min ([2]; spleen): 3.6
- ratio SUVmean to background, max ([2]; spleen): 28.6
- ratio SUVmean to background, mean ([2]; spleen): 13.3
- ratio SUVmean to background, min ([2]; spleen): 3.9
- ratio SUVmax to background, max ([2]; submandibular gland): 62.1
- ratio SUVmax to background, mean ([2]; submandibular gland): 28.2
- ratio SUVmax to background, min ([2]; submandibular gland): 14.0
- ratio SUVmean to background, max ([2]; submandibular gland): 62.3
- ratio SUVmean to background, mean ([2]; submandibular gland): 30.6
- ratio SUVmean to background, min ([2]; submandibular gland): 15.7
- ratio SUVmax to background, max ([2]; tumor lesions): 321.2
- ratio SUVmax to background, mean ([2]; tumor lesions): 43.6
- ratio SUVmax to background, min ([2]; tumor lesions): 1.7
- ratio SUVmean to background, max ([2]; tumor lesions): 356.4
- ratio SUVmean to background, mean ([2]; tumor lesions): 50.8
- ratio SUVmean to background, min ([2]; tumor lesions): 1.8
- Effective Dose ([3]; 1.0 h bladder voiding interval): 1.28E−02 mSv/MBq
- Effective Dose Equivalent ([3]; 1.0 h bladder voiding interval): 1.85E−02 mSv/MBq
- Effective Dose ([3]; […] bladder voiding interval): 2.17E−02 mSv/MBq
- Effective Dose Equivalent ([3]; […] bladder voiding interval): 2.94E−02 mSv/MBq

Compound: [^19F][^natGa]D/L-Dap-R/S-DOTAGA-rhPSMA7 [rhPSMA7-rac]
- HSA Binding (HSA): 96.7%
- SUVmax mean, bladder [2]: 8.5
- SUVmax mean, bloodpool [2]: 2.4
- SUVmax mean, bone [2]: 1.7
- SUVmax mean, duodenum [2]: 14.8
- SUVmax mean, kidney [2]: 44.8
- SUVmax mean, liver [2]: 9.5
- SUVmax mean, lungs [2]: 1.1
- SUVmax mean, pancreas [2]: 3.7
- SUVmax mean, parotic gland [2]: 23.8
- SUVmax mean, spleen [2]: 11.8
- SUVmax mean, submandibular gland [2]: 27.0
- SUVmean mean, bloodpool [2]: 2.0
- SUVmean mean, duodenum [2]: 10.9
- SUVmean mean, kidney [2]: 32.4
- SUVmean mean, liver [2]: 7.0
- SUVmean mean, lungs [2]: 0.7
- SUVmean mean, pancreas [2]: 2.5
- SUVmean mean, parotic gland [2]: 16.9
- SUVmean mean, spleen [2]: 9.1
- SUVmean mean, submandibular gland [2]: 19.6
- SUVmax mean, background [2]: 1.0
- SUVmean mean, background [2]: 0.6
- SUVmean mean, bladder ([2]; listed as 18F-rhPSMA-7): 6.3
- SUVmean mean, bone [2]: 1.1
- SUVmax mean, tumor ([2]; tumor lesions): 27.6
- SUVmean mean, tumor ([2]; tumor lesions, listed as 18F-rhPSMA-7): 20.0±20.2 and 20.0
- Effective Dose ([3]; 1.0 h bladder voiding interval): 1.22E−02 mSv/MBq
- Effective Dose Equivalent ([3]; 1.0 h bladder voiding interval): 1.82E−02 mSv/MBq
- Effective Dose ([3]; […] bladder voiding interval): 2.66E−02 mSv/MBq
- Effective Dose Equivalent ([3]; […] bladder voiding interval): 3.56E−02 mSv/MBq
